# Assay results taken from US11667607B1 (ZYLORION HEALTH INC., priority 2022, dated 2023).
# Tests used:
# [1] = Dynamic vapor sorption (DVS) moisture sorption isotherm, solid re-measured by HT-XRPD; assay type: physicochemical
# Experimental: Moisture sorption isotherms were collected on a DVS Adventure system from Surface Measurement Systems (London, UK). Sample size was circa 10 mg of solid material. A full sorption and desorption isotherm was recorded by varying the relative humidity from 40-95-0-40% in steps of 10% at a constant temperature of 25° C. Weight equilibration per step was set at dm/dt of 0.002%/min. Afterwards the sample was measured by HT-XRPD.
# [2] = Exposure of solids to 2 days at 40° C./75% RH (AAC), remeasured by XRPD; assay type: physicochemical; conditions: Table 1, lyophilization/recrystallization; ambient-dried solid after 2 days 40° C./75% RH; crystalline; pc = poor crystalline
smiles,measurement,setting,value
CCc1cc(/C(C)=N/OCc2ccc(C3CCCCC3)c(C(F)(F)F)c2)ccc1CN1CC(C(=O)O)C1.CCc1cc(/C(C)=N/OCc2ccc(C3CCCCC3)c(C(F)(F)F)c2)ccc1CN1CC(C(=O)O)C1.O=C(O)/C=C/C(=O)O [crystalline Form A],mass uptake at 80% RH,"[1]; DVS, 25° C.",2.4%
same,total mass difference between 0-95% RH,"[1]; DVS, 25° C., RH cycle 40-95-0-40%",3.6%
same,hygroscopicity according to the EP hygroscopicity classification,"[1]; DVS, based on mass uptake at 80% RH",moderately hygroscopic
same,physical stability after the sorption-desorption cycle (XRPD of solid recovered after DVS),"[1]; after DVS cycle 40-95-0-40% RH, 25° C.",physically stable
same,HT-XRPD AAC-Amb-dried (solid form after AAC),[2],Form A
